Measurements taken from ChEMBL document CHEMBL1138936, “Potent hFPRL1 (ALXR) agonists as potential anti-inflammatory agents” (Bioorg Med Chem Lett, 2006).
Each block holds one molecule with its values, some of them ahead of it. Activity calls are given as the source filed them. The calls are words filed in the database; no cut-off is given here.

Columns and labels:
[1] = biological target: T1, N-formyl peptide receptor 2 (Homo sapiens, UniProt P25090); test: Activity at human FPRL1-mediated calcium mobilization in CHO cells; assay type: functional, cell-based
T1 sequence (P25090 whole entry): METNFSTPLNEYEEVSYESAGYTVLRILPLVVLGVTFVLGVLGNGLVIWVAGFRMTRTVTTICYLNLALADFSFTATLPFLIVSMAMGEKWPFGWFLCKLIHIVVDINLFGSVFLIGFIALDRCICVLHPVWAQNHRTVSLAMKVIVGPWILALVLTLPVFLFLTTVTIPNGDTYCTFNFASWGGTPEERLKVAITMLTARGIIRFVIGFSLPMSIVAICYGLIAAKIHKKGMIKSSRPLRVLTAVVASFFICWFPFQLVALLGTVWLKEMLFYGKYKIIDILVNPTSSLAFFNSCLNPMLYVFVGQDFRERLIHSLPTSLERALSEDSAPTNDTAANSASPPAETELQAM

PMNL [2] = test: Inhibition of IL8-induced PMN migration; assay type: functional, cell-based; conditions: Homo sapiens
Mus musculus [3] = species on record: Mus musculus; test: Reduction of swelling in mouse ear at 25 ug; assay type: functional; set-up: scale not given: the % may be the effect or the level left
Mus musculus [4] = species on record: Mus musculus; test: Reduction of swelling in mouse ear at 0.25 ug; assay type: functional; set-up: scale not given: the % may be the effect or the level left
Mus musculus [5] = species on record: Mus musculus; test: Reduction of swelling in mouse ear at 2.5 ug; assay type: functional; set-up: scale not given: the % may be the effect or the level left
PMNL [6] = test: Inhibition of fMLP-induced PMN migration; assay type: functional, cell-based; conditions: Homo sapiens
Mus musculus [7] = test: Unbound ligand concentration in mouse plasma at 16.6 mg/kg; assay type: ADME, organism-based; set-up: dose 16.6 mg/kg; conditions: in vivo
Mus musculus [8] = test: Reduction of edema in mouse ear inflammation model at 50 mg/kg, po; assay type: functional; set-up: scale not given: the % may be the effect or the level left
[9] = Clearance in rat at 0.5 mg/kg, iv; assay type: ADME, organism-based; set-up: dose 0.5 mg/kg, route intravenous; conditions: in vivo
Mus musculus [10] = test: Reduction of edema in mouse ear inflammation model at 5 mg/kg, po; assay type: functional; set-up: scale not given: the % may be the effect or the level left
[11] = Bioavailability in rat at 2 mg/kg, po; assay type: ADME, organism-based; conditions: in vivo
Mus musculus [12] = test: Reduction of edema in mouse ear inflammation model at 16.6 mg/kg, po; assay type: functional; set-up: scale not given: the % may be the effect or the level left
[13] = Half life in rat at 0.5 mg/kg, iv; assay type: ADME, organism-based; set-up: dose 0.5 mg/kg, route intravenous; conditions: in vivo
Mus musculus [14] = test: Unbound ligand concentration in mouse plasma at 5 mg/kg; assay type: ADME, organism-based; set-up: dose 5 mg/kg; conditions: in vivo
[15] = Protein binding in mouse plasma; assay type: ADME, organism-based; conditions: read-out: PPB (converted)
Mus musculus [16] = test: Unbound ligand concentration in mouse plasma at 50 mg/kg; assay type: ADME, organism-based; set-up: dose 50 mg/kg; conditions: in vivo
Mus musculus [17] = species on record: Mus musculus; test: Reduction of swelling in mouse ear at 30 ug; assay type: functional; set-up: scale not given: the % may be the effect or the level left
Mus musculus [18] = test: Reduction of edema in mouse ear inflammation model at 1 mg/kg, po; assay type: functional; set-up: scale not given: the % may be the effect or the level left

SMILES: Cc1cc(NC(=O)Nc2c(C)n(C)n(-c3ccccc3)c2=O)ccc1F
EC50 [1]: > 10000 nM

SMILES: CSc1ccc(NC(=O)Nc2c(C(C)C)n(C)n(-c3cnc4ccccc4c3)c2=O)cc1
EC50 [1]: 30 nM

SMILES: Cc1c(NC(=O)Nc2ccccc2Cl)c(=O)n(-c2ccccc2)n1C
EC50 [1]: > 10000 nM

SMILES: Cc1c(NC(=O)Nc2ccc(F)cc2)c(=O)n(-c2ccccc2)n1C
EC50 [1]: 4850 nM

SMILES: Cn1c(C(C)(C)C)c(NC(=O)Nc2ccc(Cl)cc2)c(=O)n1-c1ccccc1
EC50 [1]: 23 nM

SMILES: COc1ccc(NC(=O)Nc2c(C)n(C)n(-c3ccccc3)c2=O)cc1
EC50 [1]: 2730 nM

SMILES: Cc1ccc(NC(=O)Nc2c(C(C)C)n(C)n(-c3ccccc3)c2=O)cc1F
EC50 [1]: 81 nM

SMILES: CC(C)c1c(NC(=O)Nc2ccc(Cl)cc2)c(=O)n(-c2cncnc2)n1C
EC50 [1]: 250 nM

SMILES: CC(C)c1c(NC(=O)Nc2ccc(C(F)(F)F)cc2)c(=O)n(C2=NCCS2)n1C
EC50 [1]: 1470 nM

SMILES: Cc1ccc(NC(=O)Nc2c(C(C)(C)C)n(C)n(-c3ccccc3)c2=O)cc1F
EC50 [1]: 83 nM

SMILES: CC(C)c1c(NC(=O)Nc2ccc(Cl)cc2)c(=O)n(C2=NCCS2)n1C
EC50 [1]: 540 nM

SMILES: CCc1c(NC(=O)Nc2ccc(Cl)cc2)c(=O)n(-c2ccccc2)n1C
EC50 [1]: 140 nM

SMILES: CCCCC(Oc1ccccc1)[C@@H](O)/C=C/C=C\C=C\C=C\[C@@H](O)[C@@H](O)CCCC(=O)O (stereo not given in full)
Activity (Mus musculus [3]): Active

SMILES: C[C@@H]1C[C@H]2[C@@H]3CCC4=CC(=O)C=C[C@]4(C)[C@@]3(F)[C@@H](O)C[C@]2(C)[C@@]1(O)C(=O)CO [DEXAMETHASONE]
Activity (Mus musculus [17]): 71%
Activity (Mus musculus [18]): 54%

SMILES: CC(C)c1c(NC(=O)Nc2ccc(C(F)(F)F)cc2)c(=O)n(-c2cnc3ccccc3c2)n1C
EC50 [1]: 44 nM

SMILES: CCc1c(NC(=O)Nc2ccc(C)c(F)c2)c(=O)n(-c2ccccc2)n1C
EC50 [1]: 310 nM

More lines, main results first:

EC50 [1]: 80 nM
SMILES: CC(C)c1c(NC(=O)Nc2ccc(Cl)cc2)c(=O)n(-c2cnc3ccccc3c2)n1C

IC50 (PMNL [2]): 2000 nM
IC50 (PMNL [6]): 2000 nM
EC50 [1]: 30 nM
SMILES: Cc1c(NC(=O)Nc2ccc(I)cc2)c(=O)n(-c2ccccc2)n1C
Activity (Mus musculus [3]): 52%
Activity (Mus musculus [4]): 31%
Activity (Mus musculus [5]): 35%

EC50 [1]: 170 nM
SMILES: CSc1ccc(NC(=O)Nc2c(C)n(C)n(-c3ccccc3)c2=O)cc1

EC50 [1]: 5880 nM
SMILES: Cc1c(NC(=O)Nc2ccc3c(c2)OCO3)c(=O)n(-c2ccccc2)n1C

EC50 [1]: 43 nM
SMILES: CSc1ccc(NC(=O)Nc2c(C(C)C)n(C)n(-c3cncnc3)c2=O)cc1

EC50 [1]: 980 nM
SMILES: Cc1ccc(NC(=O)Nc2c(C)n(C)n(-c3ccccc3)c2=O)cc1F

EC50 [1]: 12300 nM
SMILES: Cc1c(NC(=O)Nc2ccc(C(C)C)cc2)c(=O)n(-c2ccccc2)n1C

EC50 [1]: > 10000 nM
SMILES: Cc1c(NC(=O)Nc2cccc(Cl)c2)c(=O)n(-c2ccccc2)n1C

EC50 [1]: 100 nM
SMILES: Cc1c(NC(=O)Nc2ccc(C(F)(F)F)cc2)c(=O)n(-c2ccccc2)n1C

EC50 [1]: 150 nM
SMILES: CC(C)c1c(NC(=O)Nc2ccc(C(F)(F)F)cc2)c(=O)n(-c2cncnc2)n1C

IC50 (PMNL [2]): 240 nM
unbound plasma concentration (Mus musculus [7]): 17 nM
clearance [9]: 2.1 mL/min/kg
bioavailability [11]: 91%
half-life [13]: 2.78 h
IC50 (PMNL [6]): 640 nM
unbound plasma concentration (Mus musculus [14]): 14 nM
fraction unbound [15]: 0.021
unbound plasma concentration (Mus musculus [16]): 185 nM
SMILES: CC(C)c1c(NC(=O)Nc2ccc(Cl)cc2)c(=O)n(-c2ccccc2)n1C
Activity (Mus musculus [8]): 58%
Activity (Mus musculus [10]): 11%
Activity (Mus musculus [12]): 39%

EC50 [1]: 770 nM
SMILES: CCc1ccc(NC(=O)Nc2c(C)n(C)n(-c3ccccc3)c2=O)cc1

EC50 [1]: 490 nM
SMILES: Cc1c(NC(=O)Nc2ccc(Cl)cc2)c(=O)n(-c2ccccc2)n1C

EC50 [1]: 100 nM
SMILES: CCn1c(C(C)C)c(NC(=O)Nc2ccc(C)c(F)c2)c(=O)n1-c1ccccc1

EC50 [1]: > 10000 nM
SMILES: CC(C)c1c(NC(=O)Nc2ccccc2Cl)c(=O)n(-c2ccccc2)n1C

EC50 [1]: 90 nM
SMILES: Cc1c(NC(=O)Nc2ccc(Br)cc2)c(=O)n(-c2ccccc2)n1C

EC50 [1]: 5130 nM
SMILES: CSc1ccc(NC(=O)Nc2c(C(C)C)n(C)n(C3=NCCS3)c2=O)cc1

EC50 [1]: > 10000 nM
SMILES: Cc1c(NC(=O)Nc2ccccc2)c(=O)n(-c2ccccc2)n1C

EC50 [1]: 3700 nM
SMILES: Cc1c(NC(=O)Nc2ccc(C#N)cc2)c(=O)n(-c2ccccc2)n1C

EC50 [1]: > 10000 nM
SMILES: Cc1c(NC(=O)Nc2nccs2)c(=O)n(-c2ccccc2)n1C

EC50 [1]: 1260 nM
SMILES: Cc1ccc(NC(=O)Nc2c(C)n(C)n(-c3ccccc3)c2=O)cc1

IC50 (PMNL [2]): > 10000 nM
IC50 (PMNL [6]): > 10000 nM
EC50 [1]: > 10000 nM
SMILES: CC1C(N(C)C(=O)N(C)c2ccc(I)cc2)C(=O)N(c2ccccc2)N1C (stereo not given)
Activity (Mus musculus [3]): 8%
Activity (Mus musculus [4]): 2%
Activity (Mus musculus [5]): 8%
